We go through five molecules from ChEMBL document CHEMBL1145723, “Metabolic cleavage of frangufoline in rodents: in vitro and in vivo study” (J Nat Prod, 1997).

Data set [1] has as its system Serum. Kind of data set: Metabolic stability in Sprague-Dawley rat serum assessed as formation of (S)-(N,N-dimethylphenylalanyl)-(2S,3S)-3[(p-formylphenoxyl)leucyl]-(S)-leucine) after 30 mins by HPLC. The data set is classed as ADME, cell-free. The conditions noted are these: 0.5 h.
The nature of data set [2]: Metabolic stability in Sprague-Dawley rat gastric juice assessed as formation of (S)-(N,N-dimethylphenylalanyl)-(2S,3S)-3[(p-formylphenoxyl)leucyl]-(S)-leucine) after 30 mins by HPLC. It is filed as ADME, tissue-based. The conditions noted are these: 0.5 h.
Data set [3] can be described thus: Metabolic stability in Sprague-Dawley rat intestinal fluid assessed as formation of (S)-(N,N-dimethylphenylalanyl)-(2S,3S)-3[(p-formylphenoxyl)leucyl]-(S)-leucine) after 30 mins by HPLC. The conditions noted are these: simulated gi fluid, 0.5 h. It is filed as ADME.
In data set [4] the test system is Serum. Kind of data set: Metabolic stability in Sprague-Dawley rat serum assessed as formation of (S)-(N,N-dimethylphenylalanyl)-(2S,3S)-3[(p-formylphenoxyl)leucyl]-(S)-leucine) after 5 mins by HPLC. It is filed as ADME, cell-free.
Data set [5] concerns Serum. Kind of data set: Metabolic stability in mouse serum assessed as formation of (S)-(N,N-dimethylphenylalanyl)-(2S,3S)-3[(p-formylphenoxyl)leucyl]-(S)-leucine) after 1 hr by HPLC. The data set is classed as ADME, cell-free.
In data set [6] the test system is Serum. Nature of the data set: Metabolic stability in human serum assessed as formation of (S)-(N,N-dimethylphenylalanyl)-(2S,3S)-3[(p-formylphenoxyl)leucyl]-(S)-leucine) after 1 hr by HPLC. It is filed as ADME, cell-free.
Data set [7] has as its system Serum. Nature of the data set: Metabolic stability in bovine serum assessed as formation of (S)-(N,N-dimethylphenylalanyl)-(2S,3S)-3[(p-formylphenoxyl)leucyl]-(S)-leucine) after 1 hr by HPLC. The data set is classed as ADME, cell-free, Bos taurus. The conditions noted are these: cattle.
The test system of data set [8] is Serum. Nature of the data set: Metabolic stability in Sprague-Dawley rat serum assessed as formation of (S)-(N,N-dimethylphenylalanyl)-(2S,3S)-3[(p-formylphenoxyl)leucyl]-(S)-leucine) at 50 mg/kg, po after 30 mins by HPLC. It is filed as ADME, organism-based. The conditions noted are these: in vivo, 0.5 h. On the set-up: dose 50 mg/kg, route oral.
The subject of data set [9] is Serum. Kind of data set: Metabolic stability in Sprague-Dawley rat serum assessed as formation of (S)-(N,N-dimethylphenylalanyl)-(2S,3S)-3[(p-formylphenoxyl)leucyl]-(S)-leucine) at 25 mg/kg, po after 10 mins by HPLC. The data set is classed as ADME, organism-based. Set-up: dose 25 mg/kg, route oral. The conditions noted are these: in vivo.
Data set [10] concerns Serum. Kind of data set: Metabolic stability in Sprague-Dawley rat serum assessed as initial rate of compound cleavage at 0.10 mM after 10 mins by HPLC. The data set is classed as ADME, cell-free. The conditions noted are these: 100 µM.
Data set [11] concerns Serum. Nature of the data set: Metabolic stability in Sprague-Dawley rat serum assessed as initial rate of compound cleavage at 0.10 mM after 10 mins by HPLC in presence of 2 mM (phenylmethyl)sulfonyl fluoride. The data set is classed as ADME, cell-free. The conditions noted are these: 100 µM.
Data set [12] has as its system Serum. Nature of the data set: Metabolic stability in Sprague-Dawley rat serum assessed as initial rate of compound cleavage at 0.10 mM after 10 mins by HPLC in presence of 2 mM EDTA. The conditions noted are these: 100 µM. The data set is classed as ADME, cell-free.
Data set [13] has as its system Serum. Nature of the data set: Metabolic stability in Sprague-Dawley rat serum assessed as initial rate of compound cleavage at 0.10 mM after 10 mins by HPLC in presence of 2 mM p-chloromercuribenzoic acid. The data set is classed as ADME, cell-free. The conditions noted are these: 100 µM.
Data set [14] concerns Serum. Nature of the data set: Metabolic stability in Sprague-Dawley rat serum assessed as initial rate of compound cleavage at 0.10 mM after 10 mins by HPLC in presence of 2 mM bis-(p-nitrophenyl) phosphate. It is filed as ADME, cell-free. The conditions noted are these: 100 µM.
The test system of data set [15] is Serum. Nature of the data set: Metabolic stability in Sprague-Dawley rat serum assessed as initial rate of compound cleavage at 0.10 mM after 10 mins by HPLC in presence of 2 mM eserine. It is filed as ADME, cell-free. The conditions noted are these: 100 µM.
The subject of data set [16] is Serum. Kind of data set: Metabolic stability in Sprague-Dawley rat serum assessed as initial rate of compound cleavage at 0.10 mM after 10 mins by HPLC in presence of 10 uM eserine. The data set is classed as ADME, cell-free. The conditions noted are these: 100 µM.
Data set [17] has as its system Serum. Kind of data set: Metabolic stability in Sprague-Dawley rat serum up to 3 hrs. The data set is classed as ADME, cell-free.

`CC(C)C[C@H]1NC(=O)[C@@H](NC(=O)[C@H](Cc2ccccc2)N(C)C)[C@H](C(C)C)Oc2ccc(cc2)/C=C\NC1=O` [SANJOININE AH1]: the Activity entry in data set [1] is “Unstable”.
Turning to `CC(C)C[C@@H]1NC(=O)[C@@H](NC(=O)[C@H](Cc2ccccc2)N(C)C)[C@H](C(C)C)Oc2ccc(cc2)[C@@H](O)CNC1=O` [SANJOININE G1], in [1], the Activity result is reported as “Stable”.
Consider `CC(C)C[C@@H]1NC(=O)[C@@H](NC(=O)[C@H](Cc2ccccc2)N(C)C)[C@H](C(C)C)Oc2ccc(cc2)CCNC1=O` [DIHYDROSANJOININE A], for which the Activity result in data set [1] is “Stable”.
Same read-out and setting: to `CO[C@H]1CNC(=O)[C@H](CC(C)C)NC(=O)[C@@H](NC(=O)[C@H](Cc2ccccc2)N(C)C)[C@H](C(C)C)Oc2ccc1cc2` [SANJOININE D] belongs “Stable”.
Regarding `CC(C)C[C@@H]1NC(=O)[C@@H](NC(=O)[C@H](Cc2ccccc2)N(C)C)[C@H](C(C)C)Oc2ccc(cc2)/C=C\NC1=O` [FRANGUFOLINE], the Stability result in [2] is “Stable”; in [3], “Stable”; in data set [4], “Unstable”; in data set [5], “Unstable”; in data set [6], “Stable”; in [7], “Stable”. Also, the Stability result is “Unstable” in [8]; “Unstable” in data set [9]; “Unstable” in data set [1]; 1.44 pmol/min/mg in data set [10]; 1.3 pmol/min/mg in [11]; 0.376 pmol/min/mg in data set [12]. The Stability in [13] was 1.34 pmol/min/mg; in [14], 0.116 pmol/min/mg; in data set [15] it was 0.352 pmol/min/mg; in data set [16], 1.24 pmol/min/mg; in data set [17], “Stable”.
